In US9593149B2, “Amylin and calcitonin receptor agonist” (Novo Nordisk A/S, priority 2014, dated 2017) one finds Solubility, solubility and IC50 data, which are given here for two compounds.

Converted amounts (≈) assume the structure as drawn. Numbered stars: 1 amine (or outer) side, 2 acyl side, 3 side chain; on linkers, the order of the positions; unused ones are H or OH. Side chains are listed from the residue outwards. Peptide text beside a SMILES is read from it. * marks the point of attachment. C20 diacid = O=C(O)CCCCCCCCCCCCCCCCCCC(=O)*; γGlu = O=C(O)[C@H](CCC(=O)[*:2])N[*:1]

Series [1] in a line: Assay (IV) determination of solubility. It counts as physicochemical. The protocol:
Assay (IV)—Determination of Solubility
The mimylin peptide was dissolved in water at ˜500 nmol/ml and mixed 1:1 with a series of buffers (100 mM glycylglycine pH 3.0, 100 mM glycylglycine pH 4.0, 100 mM glycylglycine pH 5.0, 100 mM bistrispropane pH 6.0, 100 mM bistrispropane pH 6.5, 100 mM bistrispropane pH 7.0, 100 mM bistrispropane pH 7.5, 100 mM bistrispropane pH 8.0).

Another series concerns the target T1, rat calcitonin receptor (Rattus norvegicus, UniProt P32214).
T1 construct: expressed in transfected cells; host or cells: BHK tk'ts 13 (transient, FuGENE 6)
T1 sequence (P32214 25-479 isoform P32214-2 limits assumed): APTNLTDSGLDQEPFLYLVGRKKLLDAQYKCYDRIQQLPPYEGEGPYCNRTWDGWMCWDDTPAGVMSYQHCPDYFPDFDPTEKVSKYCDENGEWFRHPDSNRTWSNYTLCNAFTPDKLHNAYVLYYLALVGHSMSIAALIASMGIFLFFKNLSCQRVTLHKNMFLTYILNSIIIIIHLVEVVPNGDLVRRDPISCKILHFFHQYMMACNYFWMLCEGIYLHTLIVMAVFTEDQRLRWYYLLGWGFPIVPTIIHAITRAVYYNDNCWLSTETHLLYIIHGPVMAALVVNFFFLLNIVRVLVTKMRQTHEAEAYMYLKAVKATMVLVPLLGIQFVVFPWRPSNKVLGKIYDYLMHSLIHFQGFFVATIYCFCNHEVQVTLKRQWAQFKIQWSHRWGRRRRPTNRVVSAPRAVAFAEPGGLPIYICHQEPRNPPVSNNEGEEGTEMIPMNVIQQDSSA
Put plainly: Assay (VIII) binding to the rat calcitonin receptor. The note with it: membranes; read-out: rCT-R binding IC50. The protocol:
The morning after, the plates were washed three times in HBSS (4° C.), and lyzed in Lysis buffer (0.1 M NaOH), 1% SDS. Scintillation cocktail (MicroScint40®) was added and the plates were shaken at 500 rpm for a short period. The plate was incubated at room temperature in the dark for 1 hour and Read on a TopCounter™ (Packard). The IC50 was calculated using (one site binding competition analysis) GraphPad Prism5 as a measure of receptor affinity. Assay (VIII)—Determination of Binding to the Rat Calcitonin Receptor
The assay was performed as described above (Assay (VII)—Determination of binding to the human calcitonin receptor) with the exception that we used membranes prepared from BHK tk'ts 13 cells that were transiently transfected with the rat calcitonin receptor. The BHK tk'ts 13 cells were transiently transfected with rat calcitonin receptor using FuGENE® 6 (Roche), according to the manufacturer's recommendations. Cells were grown in DMEM with 10% FBS and 1% Pen/Strep.

With `CC(C)C[C@H](NC(=O)CNC(=O)[C@H](CO)NC(=O)[C@H](C)NC(=O)CC[C@H](NC(=O)CCCCCCCCCCCCCCCCCCC(=O)O)C(=O)O)C(=O)N[C@@H](CO)C(=O)N[C@H](C(=O)N[C@@H](C)C(=O)N[C@H](C(=O)N[C@@H](CC(C)C)C(=O)NCC(=O)N[C@@H](CCCCN)C(=O)N[C@@H](CC(C)C)C(=O)N[C@@H](CO)C(=O)N[C@@H](CCC(N)=O)C(=O)N[C@@H](CCC(=O)O)C(=O)N[C@@H](CC(C)C)C(=O)N[C@@H](Cc1cnc[nH]1)C(=O)N[C@@H](CCC(=O)O)C(=O)N[C@@H](CC(C)C)C(=O)N[C@@H](CCC(N)=O)C(=O)N[C@H](C(=O)N[C@@H](Cc1ccc(O)cc1)C(=O)N1CCC[C@H]1C(=O)N1CCC[C@H]1C(=O)N[C@H](C(=O)N[C@@H](CCC(=O)O)C(=O)N[C@H](C(=O)NCC(=O)N[C@@H](CO)C(=O)NCC(=O)N[C@H](C(=O)N[C@@H](Cc1ccc(O)cc1)C(N)=O)[C@@H](C)O)[C@@H](C)O)[C@@H](C)O)[C@@H](C)O)C(C)C)[C@@H](C)O` [compound 131, [N-terminal(C20 diacid-gGlu), des1, 4G, 9V, 12K, 15Q, 21Q, 23Y, 25P, 30S, 31G, 32T, 33Y]mimylin] ({C20 diacid-γGlu}-ASGLSTAVLGKLSQELHELQTYPPTETGSGTY-NH2), the Solubility entry in series [1] (pH 3.0), in series [1] (pH 5.0), in series [1] (pH 6.0), in series [1] (pH 6.5), in series [1] (pH 7.0) and in series [1] (pH 7.5) was “≧200 μM” in each case. For the same compound, in series [1] (pH 8.0), the Solubility result was “≧200 μM”. The compound also had a solubility at 18 h in series [1] (pH 4.0) of 10 µM (≈ 37.9 µg/mL). In addition, on rat calcitonin receptor, the IC50 turned out to be 0.246 nM.

In the case of `CC(=O)N[C@@H](C)C(=O)N[C@@H](CO)C(=O)N[C@@H](CCC(=O)O)C(=O)N[C@@H](CC(C)C)C(=O)N[C@@H](CO)C(=O)N[C@H](C(=O)N[C@@H](C)C(=O)N[C@@H](C)C(=O)N[C@@H](CC(C)C)C(=O)NCC(=O)N[C@@H](CCCNC(=N)N)C(=O)N[C@@H](CC(C)C)C(=O)N[C@@H](CO)C(=O)N[C@@H](C)C(=O)N[C@@H](CCCCNC(=O)CC[C@H](NC(=O)CCCCCCCCCCCCCCCCCCC(=O)O)C(=O)O)C(=O)N[C@@H](CC(C)C)C(=O)N[C@@H](Cc1cnc[nH]1)C(=O)N[C@@H](CCC(=O)O)C(=O)N[C@@H](CC(C)C)C(=O)N[C@@H](C)C(=O)N[C@H](C(=O)N[C@@H](CC(C)C)C(=O)N1CCC[C@H]1C(=O)N[C@@H](CCCNC(=N)N)C(=O)N[C@H](C(=O)N[C@@H](CCC(=O)O)C(=O)N[C@H](C(=O)NCC(=O)N[C@@H](CO)C(=O)NCC(=O)N[C@@H](CO)C(=O)N1CCC[C@H]1C(N)=O)[C@@H](C)O)[C@@H](C)O)[C@@H](C)O)[C@@H](C)O` [compound 69, [N-terminal(acetyl), des1, 16K(C20 diacid-gGlu), 30S, 31G]mimylin] (Ac-ASELSTAALGRLSAK([γGlu-C20 diacid])LHELATLPRTETGSGSP-NH2), the Solubility result in series [1] (pH 3.0), in series [1] (pH 4.0), in series [1] (pH 5.0), in series [1] (pH 6.0), in series [1] (pH 6.5) and in series [1] (pH 7.0) was “≧200 μM” in each case. Moreover, the Solubility entry in series [1] (pH 7.5) and in series [1] (pH 8.0) was “≧200 μM” throughout. Besides, the IC50 on rat calcitonin receptor came out at 0.042 nM.
